Measurements from patent US20090298864A1, “Methods for Treating Mild Cognitive Impairment” (The Trustees of Columbia University in the City of New York, priority 2005, published 2009).
Entries after “also recorded” stand apart in the source; their conditions may differ.

Key:
WT mice = assay: Contextual fear learning (freezing) in WT control mice; format: in vivo, mouse; details: rolipram 0.3 mg/kg vs vehicle, freezing measured 24 hours after training, FIG. 1
Protocol: (§1) The effect of rolipram on contextual fear learning in APP mice was determined according to the methods set forth in Gong et al., J Clin Invest. 114(11):1624-34 (2004), which are described briefly as follows:
(§2) Three to five month old single transgenic APP and WT mice were separated into four groups: APP mice treated with vehicle (“APP control group”), APP mice treated with rolipram at 0.3 mg/kg (“APP rolipram group”), WT mice treated with vehicle (“control vehicle group”), and WT mice treated with rolipram at 0.3 mg/kg (“control rolipram group”). 30 minutes after treatment with either vehicle or rolipram, the mice were placed in a conditioning chamber and subjected to a series of electrical shocks to the feet. Animal behavior was evaluated for three types of response to the shocks (flinching, jumping and screaming) and thresholds for various types of responses were determined for each animal
(§3) Mice were placed in the conditioning chamber for about 2 minutes, then an auditory tone was given for about 30 seconds. During the last two seconds of the tone, the mice were given a foot shock. The mice were left in the conditioning chamber for about 30 seconds, then were returned to their home cages. […]
(§4) To evaluate contextual fear learning, freezing was measured for 5 consecutive minutes in the conditioning chamber 24 hours after training.

APP mice = assay: Contextual fear learning (freezing) in APP mouse model of mild cognitive impairment; format: in vivo; details: single transgenic APP mice, 3-5 months old; rolipram 0.3 mg/kg vs vehicle; freezing measured 24 hours after training; FIG. 1
Protocol: as §1, §2, §3, §4

[1] = tested on: mouse model of Alzheimer's disease; details: brief treatment of a mouse model of Alzheimer's disease; cited from earlier work

SMILES: COc1ccc(C2CNC(=O)C2)cc1OC1CCCC1 (stereo not drawn) [rolipram]
- freezing responses in the contextual fear conditioning test (WT mice): no significant difference
- freezing in the contextual fear conditioning test (contextual fear learning) (APP mice): much higher incidence of freezing; also recorded: improved contextual fear learning
- memory (long-term potential and contextual learning) [1]: improves memory in both long-term potential and contextual learning
